From PMC5996997 (Journal of medicinal chemistry, 2017)
Entries after “also recorded” stand apart in the source; their conditions may differ.

How the values were obtained:
PDK2 [1] = target: T1, PDK2 (Homo sapiens, UniProt Q15119); assay: Isothermal titration calorimetry; details: ITC, binding to PDK2
PDK2 [2] = target: T1, PDK2
[3] = tested on: diet-induced obese (DIO) mice; assay: Glucose tolerance test in DIO mice; type: in vivo, C57BL/6J male mice (DIO); details: 40–45 mg/kg/day, two weeks, p <0.05 at 20, 30, 60 and 120 min
[4] = tested on: diet-induced obese (DIO) mice; assay: Oil Red O stain of liver slices; type: in vivo, C57BL/6J male mice (DIO); details: 40–45 mg/kg/day by mini pumps, two weeks
[5] = tested on: phosphorylated E1α subunit (pE1); assay: Western blot of phosphorylated E1α in liver homogenates of treated DIO mice; type: in vivo, C57BL/6J male mice (DIO); details: 40–45 mg/kg/day by osmotic mini-pumps, two weeks
[6] = 17 at 30 mg/kg vs 2 at 70 mg/kg IP
PDC activity = PDC activity in tissues of treated diet-induced obese mice; type: in vivo, C57BL/6J male mice (DIO); details: DIO mice, 40–45 mg/kg/day by osmotic mini-pumps, two weeks

O=S(=O)(c1ccc(O)cc1O)N1Cc2ccc(O)cc2C1 [Compound 1, 4-((5-hydroxyisoindolin-2-yl)sulfonyl)benzene-1,3-diol]
–TΔS (PDK2 [1]): 5.54 kcal/mol

O=S(=O)(c1ccc(O)cc1O)N1Cc2cc(O)cc(O)c2C1 [Compound 2, 2-((2,4-dihydroxyphenyl)sulfonyl)isoindoline-4,6-diol]
–TΔS (PDK2 [1]): 6.57 kcal/mol

Nc1ccc2c(c1)CN(S(=O)(=O)c1ccc(O)cc1O)C2 [Compound 3]
fold higher IC50 than 1 (PDK2 [2]; PDK2, relative to 1): 2 fold

O=S(=O)(c1ccc(O)cc1O)N1Cc2ccc(NC3CCNCC3)cc2C1 [Compound 5, 4-((5-(piperidin-4-ylamino)isoindolin-2-yl)sulfonyl)benzene-1,3-diol]
–TΔS (PDK2 [1]): 4.64 kcal/mol

NC(=O)C[C@H](N)C(=O)N1CCC(Nc2ccc3c(c2)CN(S(=O)(=O)c2ccc(O)cc2O)C3)CC1 [Compound 17, (S)-3-amino-4-(4-((2-((2,4-dihydroxyphenyl)sulfonyl)isoindolin-5-yl)amino)piperidin-1-yl)-4-oxobutanamide]
glucose tolerance over vehicle-treated mice [3]: increases glucose tolerance | hepatic fat / steatosis (Oil Red O) [4]: drastically reduced hepatic steatosis; also recorded: microvesicular | phosphorylation of the E1α subunit (pE1) in the liver homogenate [5]: decreased phosphorylation | gain in enthalpy change (ΔH) compared to 5 (PDK2 [1]): 3.4 kcal/mol | loss in entropy compared to 5 (PDK2 [1]): 2.7 kcal/mol | fold higher AUClast in liver than 2 [6]: > 10 fold | fold lower AUClast in muscle than 2 [6]: > 10 fold | fold slower unit-time clearance (CL/F) in liver than 2 [6]: > 30 fold | PDC activation in heart and muscle (PDC activity): no PDC activation | increase of PDC activity in liver compared to the vehicle control (PDC activity): about 6 fold | fold lower IC50 than 2 (PDK2 [2]; PDK2, relative to 2): ~ 8 fold | fold better IC50 than 5 (PDK2 [2]; PDK2, relative to 5): 3.4 fold
